Data as given in the kinase profiling compilation of Christmann-Franck et al. (2016).
pIC50: −log10 of the molar value.

Legend:
MET (human) [1] = biological target: MET (human) (UniProt P08581); assay: TR FRET
MET (human) [2] = biological target: MET (human) (UniProt P08581); assay: Caliper, Mobility shift assay off-chip
FRK (human) = FRK (human) (UniProt P42685); assay: Caliper, Mobility shift assay off-chip
ROS1 (human) = ROS1 (human) (UniProt P08922); assay: Caliper, Mobility shift assay off-chip
MELK (human) = MELK (human) (UniProt Q14680); assay: Caliper, Mobility shift assay off-chip
CLK2 (human) = CLK2 (human) (UniProt P49760); assay: Caliper, Mobility shift assay off-chip
[3] = tested on: KIT (human), P10721 [T670I]; assay: Caliper, Mobility shift assay off-chip
HIPK1 (human) = HIPK1 (human) (UniProt Q86Z02); assay: Caliper, Mobility shift assay off-chip
NLK (human) = NLK (human) (UniProt Q9UBE8); assay: radiometric filter-binding kinase assay, Kinaseprofiler; details: compound 1.0 µM; ATP 200 µM
RIPK2 (human) = RIPK2 (human) (UniProt O43353); assay: as above; details: compound 1.0 µM; ATP 120 µM
[4] = tested on: MARK1 (human), Q9P0L2 [V16E/T20S]; assay: as above; details: compound 1.0 µM; ATP 10 µM
SRPK3 (human) = SRPK3 (human) (UniProt Q9UPE1); assay: as above; details: compound 1.0 µM; ATP 15 µM
ALK (human) = ALK (human) (UniProt Q9UM73); assay: as above; details: compound 1.0 µM; ATP 200 µM
KIT (human) = KIT (human) (UniProt P10721); assay: as above; details: compound 1.0 µM; ATP 200 µM
PRKCB2 (human) = PRKCB2 (human) (UniProt P05771); assay: as above; details: compound 1.0 µM; ATP 10 µM
[5] = tested on: GSK3B (human), P49841 [H350L]; assay: as above; details: compound 1.0 µM; ATP 15 µM
RPS6KA4 KD1 KD2 (human) = RPS6KA4 KD1 KD2 (human) (UniProt O75676); assay: as above; details: compound 1.0 µM; ATP 45 µM
EPHB4 (human) = EPHB4 (human) (UniProt P54760); assay: as above; details: compound 1.0 µM; ATP 10 µM
EPHA4 (human) = EPHA4 (human) (UniProt P54764); assay: as above; details: compound 1.0 µM; ATP 15 µM
PRKCD (human) = PRKCD (human) (UniProt Q05655); assay: as above; details: compound 1.0 µM; ATP 15 µM
[6] = tested on: MAPK14 (human), Q16539 [T106M]; assay: as above; details: compound 1.0 µM; ATP 90 µM
FES (human) = FES (human) (UniProt P07332); assay: as above; details: compound 1.0 µM; ATP 45 µM
STK11 (human) = STK11 (human) (UniProt Q15831); assay: as above; details: compound 1.0 µM; ATP 155 µM
MAPK8 (human) = MAPK8 (human) (UniProt P45983); assay: as above; details: compound 1.0 µM; ATP 45 µM
YES1 (human) = YES1 (human) (UniProt P07947); assay: as above; details: compound 1.0 µM; ATP 45 µM
PRKCB1 (human) = PRKCB1 (human) (UniProt P05771); assay: as above; details: compound 1.0 µM; ATP 10 µM
CAMK4 (human) = CAMK4 (human) (UniProt Q16566); assay: as above; details: compound 1.0 µM; ATP 10 µM
[7] = tested on: MAPK9 (human), P45984 [S51N]; assay: as above; details: compound 1.0 µM; ATP 45 µM
[8] = tested on: AKT2 (human), P31751 [S474D]; assay: as above; details: compound 1.0 µM; ATP 200 µM
PLK3 (human) = PLK3 (human) (UniProt Q9H4B4); assay: as above; details: compound 1.0 µM; ATP 70 µM
EPHB1 (human) = EPHB1 (human) (UniProt P54762); assay: as above; details: compound 1.0 µM; ATP 200 µM
PRKCZ (human) = PRKCZ (human) (UniProt Q05513); assay: as above; details: compound 1.0 µM; ATP 15 µM
[9] = tested on: AXL (human), P30530 [Q764R]; assay: as above; details: compound 1.0 µM; ATP 90 µM
IRAK1 (human) = IRAK1 (human) (UniProt P51617); assay: as above; details: compound 1.0 µM; ATP 45 µM
STK24 (human) = STK24 (human) (UniProt Q9Y6E0); assay: as above; details: compound 1.0 µM; ATP 15 µM
NTRK1 (human) = NTRK1 (human) (UniProt P04629); assay: as above; details: compound 1.0 µM; ATP 120 µM
CDC42BPB (human) = CDC42BPB (human) (UniProt Q9Y5S2); assay: as above; details: compound 1.0 µM; ATP 10 µM

Chain of FRK (human) (P42685 whole entry, looked up): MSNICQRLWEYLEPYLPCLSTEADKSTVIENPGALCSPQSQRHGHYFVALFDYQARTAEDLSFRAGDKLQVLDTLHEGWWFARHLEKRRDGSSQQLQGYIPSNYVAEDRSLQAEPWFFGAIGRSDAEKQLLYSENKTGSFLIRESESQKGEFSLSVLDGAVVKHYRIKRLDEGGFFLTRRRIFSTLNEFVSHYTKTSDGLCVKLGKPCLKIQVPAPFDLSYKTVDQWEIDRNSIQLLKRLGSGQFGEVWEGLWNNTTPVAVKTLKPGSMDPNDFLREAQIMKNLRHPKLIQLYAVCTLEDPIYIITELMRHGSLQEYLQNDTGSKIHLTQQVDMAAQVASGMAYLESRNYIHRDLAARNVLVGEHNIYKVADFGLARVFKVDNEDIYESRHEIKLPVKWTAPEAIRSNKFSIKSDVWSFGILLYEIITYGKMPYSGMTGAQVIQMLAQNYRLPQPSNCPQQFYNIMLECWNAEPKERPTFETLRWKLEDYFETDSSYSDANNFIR
Chain of MELK (human) (Q14680 whole entry, looked up): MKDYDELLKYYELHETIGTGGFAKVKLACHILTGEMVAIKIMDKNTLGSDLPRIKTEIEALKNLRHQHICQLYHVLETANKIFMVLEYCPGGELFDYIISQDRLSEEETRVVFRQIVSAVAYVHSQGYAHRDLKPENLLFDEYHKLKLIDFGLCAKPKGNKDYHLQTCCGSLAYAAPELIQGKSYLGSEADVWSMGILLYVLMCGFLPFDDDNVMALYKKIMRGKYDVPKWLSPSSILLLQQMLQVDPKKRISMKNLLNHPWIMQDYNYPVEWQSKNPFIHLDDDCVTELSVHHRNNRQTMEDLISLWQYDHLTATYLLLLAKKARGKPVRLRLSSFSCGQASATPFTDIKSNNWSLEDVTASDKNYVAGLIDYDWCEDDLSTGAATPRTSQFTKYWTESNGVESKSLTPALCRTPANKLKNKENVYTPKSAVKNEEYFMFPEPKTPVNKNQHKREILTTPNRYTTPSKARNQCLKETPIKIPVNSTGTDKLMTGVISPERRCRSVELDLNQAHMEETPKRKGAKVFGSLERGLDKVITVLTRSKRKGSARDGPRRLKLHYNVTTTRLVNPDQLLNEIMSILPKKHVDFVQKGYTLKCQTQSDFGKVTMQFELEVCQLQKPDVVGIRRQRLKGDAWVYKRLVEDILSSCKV
Chain of ROS1 (human) (P08922 whole entry, looked up): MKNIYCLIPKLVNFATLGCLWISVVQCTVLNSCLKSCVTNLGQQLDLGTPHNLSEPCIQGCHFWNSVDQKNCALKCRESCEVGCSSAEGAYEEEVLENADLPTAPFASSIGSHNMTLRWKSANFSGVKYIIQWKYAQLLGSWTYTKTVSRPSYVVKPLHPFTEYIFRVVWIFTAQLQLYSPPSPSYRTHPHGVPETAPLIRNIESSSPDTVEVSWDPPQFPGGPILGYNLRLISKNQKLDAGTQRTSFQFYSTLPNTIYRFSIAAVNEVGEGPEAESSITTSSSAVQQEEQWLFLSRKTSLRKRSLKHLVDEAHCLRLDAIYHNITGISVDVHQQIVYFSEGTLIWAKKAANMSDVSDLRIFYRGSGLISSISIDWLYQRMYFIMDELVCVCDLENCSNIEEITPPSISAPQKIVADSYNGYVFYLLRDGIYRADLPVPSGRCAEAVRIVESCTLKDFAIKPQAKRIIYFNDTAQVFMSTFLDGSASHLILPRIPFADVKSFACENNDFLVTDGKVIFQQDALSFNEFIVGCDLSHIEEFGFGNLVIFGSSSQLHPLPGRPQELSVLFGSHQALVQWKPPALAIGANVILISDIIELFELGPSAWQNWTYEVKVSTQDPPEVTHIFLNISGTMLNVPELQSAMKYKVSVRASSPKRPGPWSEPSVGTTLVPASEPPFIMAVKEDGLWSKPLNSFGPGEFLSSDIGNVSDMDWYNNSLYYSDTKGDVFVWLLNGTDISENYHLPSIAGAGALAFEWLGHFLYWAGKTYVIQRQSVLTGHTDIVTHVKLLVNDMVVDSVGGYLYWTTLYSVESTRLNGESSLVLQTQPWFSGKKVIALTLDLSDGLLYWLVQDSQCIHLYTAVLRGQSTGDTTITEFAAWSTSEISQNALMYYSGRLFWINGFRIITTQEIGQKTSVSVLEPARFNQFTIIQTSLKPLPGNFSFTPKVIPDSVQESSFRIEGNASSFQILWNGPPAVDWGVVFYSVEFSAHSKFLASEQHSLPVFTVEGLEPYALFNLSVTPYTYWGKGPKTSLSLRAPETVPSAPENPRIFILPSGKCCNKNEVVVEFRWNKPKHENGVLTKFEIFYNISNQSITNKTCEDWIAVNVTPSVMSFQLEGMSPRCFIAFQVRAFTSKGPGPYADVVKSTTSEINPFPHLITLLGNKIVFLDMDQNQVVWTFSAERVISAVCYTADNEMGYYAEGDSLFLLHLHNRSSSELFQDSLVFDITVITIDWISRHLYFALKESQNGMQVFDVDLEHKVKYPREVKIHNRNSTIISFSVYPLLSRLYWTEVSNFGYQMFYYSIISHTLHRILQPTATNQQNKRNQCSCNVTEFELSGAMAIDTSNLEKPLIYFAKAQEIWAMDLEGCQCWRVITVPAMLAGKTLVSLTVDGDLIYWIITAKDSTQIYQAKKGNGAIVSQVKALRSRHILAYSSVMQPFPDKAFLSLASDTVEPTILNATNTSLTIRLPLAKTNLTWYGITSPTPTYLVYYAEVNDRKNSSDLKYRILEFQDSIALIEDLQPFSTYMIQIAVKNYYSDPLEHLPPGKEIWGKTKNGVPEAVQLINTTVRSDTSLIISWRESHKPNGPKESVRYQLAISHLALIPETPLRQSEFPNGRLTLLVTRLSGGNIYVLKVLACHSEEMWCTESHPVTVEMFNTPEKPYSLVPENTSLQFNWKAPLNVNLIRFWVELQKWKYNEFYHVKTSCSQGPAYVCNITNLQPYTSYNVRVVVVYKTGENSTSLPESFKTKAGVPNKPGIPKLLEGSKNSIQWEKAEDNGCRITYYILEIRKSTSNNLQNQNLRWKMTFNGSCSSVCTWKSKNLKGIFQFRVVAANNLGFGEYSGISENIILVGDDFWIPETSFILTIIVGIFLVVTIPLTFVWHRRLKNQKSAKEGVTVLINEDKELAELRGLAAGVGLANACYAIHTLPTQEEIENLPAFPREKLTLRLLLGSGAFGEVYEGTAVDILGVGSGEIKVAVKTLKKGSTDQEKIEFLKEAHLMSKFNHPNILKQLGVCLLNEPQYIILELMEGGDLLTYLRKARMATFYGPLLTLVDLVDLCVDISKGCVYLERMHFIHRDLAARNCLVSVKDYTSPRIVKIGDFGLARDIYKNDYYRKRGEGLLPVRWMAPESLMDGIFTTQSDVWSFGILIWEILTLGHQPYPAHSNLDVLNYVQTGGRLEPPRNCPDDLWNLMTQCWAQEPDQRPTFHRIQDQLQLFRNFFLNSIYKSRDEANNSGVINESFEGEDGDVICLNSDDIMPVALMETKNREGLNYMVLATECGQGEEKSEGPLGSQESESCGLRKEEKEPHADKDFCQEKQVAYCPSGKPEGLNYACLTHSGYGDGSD
Chain of HIPK1 (human) (Q86Z02 whole entry, looked up): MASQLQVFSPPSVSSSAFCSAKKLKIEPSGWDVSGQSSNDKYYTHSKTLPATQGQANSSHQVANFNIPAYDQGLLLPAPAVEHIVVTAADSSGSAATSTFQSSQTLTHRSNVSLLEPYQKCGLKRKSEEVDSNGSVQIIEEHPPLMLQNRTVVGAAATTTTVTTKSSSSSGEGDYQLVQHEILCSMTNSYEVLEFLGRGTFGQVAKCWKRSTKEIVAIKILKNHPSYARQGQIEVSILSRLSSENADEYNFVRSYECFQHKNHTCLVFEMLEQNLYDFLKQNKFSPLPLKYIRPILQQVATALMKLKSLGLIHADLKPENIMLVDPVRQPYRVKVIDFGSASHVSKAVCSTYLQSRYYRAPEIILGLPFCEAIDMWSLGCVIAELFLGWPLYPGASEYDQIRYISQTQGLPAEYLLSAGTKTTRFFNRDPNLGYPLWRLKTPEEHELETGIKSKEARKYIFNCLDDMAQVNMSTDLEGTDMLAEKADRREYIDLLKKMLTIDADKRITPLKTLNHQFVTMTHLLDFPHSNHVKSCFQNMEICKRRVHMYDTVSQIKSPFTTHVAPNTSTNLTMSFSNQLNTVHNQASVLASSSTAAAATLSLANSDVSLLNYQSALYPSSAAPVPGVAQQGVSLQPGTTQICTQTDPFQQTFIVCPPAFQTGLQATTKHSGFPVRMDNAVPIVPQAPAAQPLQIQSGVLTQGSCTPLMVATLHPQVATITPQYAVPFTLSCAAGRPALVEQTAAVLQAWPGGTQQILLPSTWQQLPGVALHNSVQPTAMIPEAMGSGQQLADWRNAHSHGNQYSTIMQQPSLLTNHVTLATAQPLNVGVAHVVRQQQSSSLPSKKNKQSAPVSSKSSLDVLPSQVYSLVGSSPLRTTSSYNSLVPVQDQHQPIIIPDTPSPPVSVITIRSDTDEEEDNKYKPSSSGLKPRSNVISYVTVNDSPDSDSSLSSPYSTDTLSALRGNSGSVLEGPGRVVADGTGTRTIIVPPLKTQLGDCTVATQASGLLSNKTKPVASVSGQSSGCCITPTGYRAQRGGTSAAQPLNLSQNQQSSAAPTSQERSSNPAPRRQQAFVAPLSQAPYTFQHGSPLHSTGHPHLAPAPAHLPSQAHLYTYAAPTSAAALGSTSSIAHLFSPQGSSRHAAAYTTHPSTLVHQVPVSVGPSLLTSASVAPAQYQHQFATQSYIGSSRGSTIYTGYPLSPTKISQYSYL
Chain of MAPK14 (human), Q16539 [T106M] (Q16539 whole entry T106M, looked up): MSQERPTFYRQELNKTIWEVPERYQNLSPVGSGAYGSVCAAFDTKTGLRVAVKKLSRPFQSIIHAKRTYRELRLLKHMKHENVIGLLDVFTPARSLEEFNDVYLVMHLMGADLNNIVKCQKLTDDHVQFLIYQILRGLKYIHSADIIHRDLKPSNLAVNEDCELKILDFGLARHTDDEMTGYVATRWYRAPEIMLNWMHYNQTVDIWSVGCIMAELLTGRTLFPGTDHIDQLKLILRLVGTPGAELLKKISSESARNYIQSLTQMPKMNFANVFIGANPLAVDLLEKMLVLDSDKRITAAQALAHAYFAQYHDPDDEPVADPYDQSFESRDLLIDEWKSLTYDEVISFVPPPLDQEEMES

Structure (SMILES): O=c1c2cc(CS(=O)(=O)NCc3ccccn3)ccc2ccc2ncc(C3CCNCC3)cc12
- pIC50 (MET (human) [1]): 9.00
- inhibition (MET (human) [2]; compound 0.01 µM): 94.7%
- inhibition (MET (human) [2]; compound 0.1 µM): 99.3%

Structure (SMILES): Cn1cc(-c2cnc3ccc4ccc(CS(=O)(=O)NC5CCCCC5)cc4c(=O)c3c2)cn1
- inhibition (FRK (human); compound 0.01 µM): 0.2%
- inhibition (FRK (human); compound 0.1 µM): 3.2%
- inhibition (ROS1 (human); compound 0.01 µM): 21.2%
- inhibition (ROS1 (human); compound 0.1 µM): 6.6%
- inhibition (MELK (human); compound 0.01 µM): 1.7%
- inhibition (MELK (human); compound 0.1 µM): -0.5%
- inhibition (CLK2 (human); compound 0.01 µM): -6.3%
- inhibition (CLK2 (human); compound 0.1 µM): -5.2%
- inhibition ([3]; compound 0.01 µM): 1.3%
- inhibition ([3]; compound 0.1 µM): -4.9%
- inhibition (HIPK1 (human); compound 0.01 µM): 1.9%
- inhibition (HIPK1 (human); compound 0.1 µM): 4.6%

Structure (SMILES): O=C(CCc1ccc2ccc3ncc(C4CCNCC4)cc3c(=O)c2c1)NCc1ccccn1
- pIC50 (MET (human) [1]): 7.07
- inhibition (FRK (human); compound 0.1 µM): 7.1%
- inhibition (FRK (human); compound 1.0 µM): 6.2%
- inhibition (ROS1 (human); compound 0.1 µM): 5.1%
- inhibition (ROS1 (human); compound 1.0 µM): -12.4%
- inhibition (MELK (human); compound 0.1 µM): 2.7%
- inhibition (MELK (human); compound 1.0 µM): 5.7%
- inhibition (CLK2 (human); compound 0.1 µM): 3.4%
- inhibition (CLK2 (human); compound 1.0 µM): 4.1%
- inhibition ([3]; compound 0.1 µM): -3.3%
- inhibition ([3]; compound 1.0 µM): -4.9%
- inhibition (MET (human) [2]; compound 0.1 µM): 74.1%
- inhibition (MET (human) [2]; compound 1.0 µM): 95.7%
- inhibition (HIPK1 (human); compound 0.1 µM): 7.2%
- inhibition (HIPK1 (human); compound 1.0 µM): -0.1%

Structure (SMILES): CN(C)S(=O)(=O)Nc1ccc2ccc3ncc(-c4cnn(C)c4)cc3c(=O)c2c1
- residual activity (NLK (human)): 103%
- residual activity (RIPK2 (human)): 35%
- residual activity [4]: 62%
- residual activity (SRPK3 (human)): 83%
- residual activity (ALK (human)): 0%
- residual activity (KIT (human)): 78%
- residual activity (PRKCB2 (human)): 105%
- residual activity [5]: 110%
- residual activity (RPS6KA4 KD1 KD2 (human)): 121%
- residual activity (EPHB4 (human)): 103%
- residual activity (EPHA4 (human)): 103%
- residual activity (PRKCD (human)): 92%
- residual activity [6]: 112%
- residual activity (FES (human)): 113%
- residual activity (STK11 (human)): 134%
- residual activity (MAPK8 (human)): 98%
- residual activity (YES1 (human)): 71%
- residual activity (PRKCB1 (human)): 104%
- residual activity (CAMK4 (human)): 98%
- residual activity [7]: 88%
- residual activity [8]: 89%
- residual activity (PLK3 (human)): 105%
- residual activity (EPHB1 (human)): 67%
- residual activity (PRKCZ (human)): 95%
- residual activity [9]: 17%
- residual activity (IRAK1 (human)): 83%
- residual activity (STK24 (human)): 102%
- residual activity (NTRK1 (human)): 1%
- residual activity (CDC42BPB (human)): 94%

Structure (SMILES): CN(c1ccc2ccc3ncc(-c4cnn(C)c4)cc3c(=O)c2c1)S(=O)(=O)NCc1ccccn1
- inhibition (FRK (human); compound 0.1 µM): 1%
- inhibition (FRK (human); compound 1.0 µM): 8%
- inhibition (ROS1 (human); compound 0.1 µM): 1%
- inhibition (ROS1 (human); compound 1.0 µM): 12%
- inhibition (MELK (human); compound 0.1 µM): 11.5%
- inhibition (MELK (human); compound 1.0 µM): 45.5%
- inhibition (CLK2 (human); compound 0.1 µM): 3.2%
- inhibition (CLK2 (human); compound 1.0 µM): 16.8%
- inhibition ([3]; compound 0.1 µM): 0.2%
- inhibition ([3]; compound 1.0 µM): 21.4%
- inhibition (HIPK1 (human); compound 0.1 µM): 1%
- inhibition (HIPK1 (human); compound 1.0 µM): 5.5%
